Where two headings read alike, the source gives them in different places.
Columns and labels:
S. aureus 25923 = assay: Broth microdilution MIC, S. aureus 25923; format: cell-based, Staphylococcus aureus; details: Staphylococcus aureus, 25923, read-out: MIC (S. aureus 25923)
S. aureus 29213 = assay: Broth microdilution MIC, S. aureus 29213; format: cell-based, Staphylococcus aureus
MRSA 33591 = assay: Broth microdilution MIC, MRSA 33591; format: cell-based; details: Staphylococcus aureus, read-out: MIC (MRSA 33591)
VRSA [1] = assay: MIC against VRSA (Table 2); format: cell-based; details: Staphylococcus aureus, read-out: MIC (VRSA)
vanB VRE 51299 = assay: MIC against vanB VRE 51299; format: cell-based, Enterococcus spp.; details: Enterococcus, VRE
VRSA [2] = assay: MIC against VRSA strain panel (VRS/NRS strains); format: cell-based; details: Staphylococcus aureus
VRE = assay: MIC / in vitro activity against VRE strain panel; format: cell-based, Enterococcus spp.
MRSA = assay: MIC against MRSA strain panel; format: cell-based; details: Staphylococcus aureus, the 4th table
MSSA = assay: MIC against MSSA strain panel; format: cell-based; details: Staphylococcus aureus, the 4th table

Measured: MIC

CN[C@H](CC(C)C)C(=O)N[C@H]1C(=O)N[C@@H](CC(N)=O)C(=O)N[C@H]2C(=O)N[C@H]3C(=O)N[C@H](C(=O)N[C@H](C(=O)O)c4cc(O)cc(O)c4-c4cc3ccc4O)[C@H](O)c3ccc(c(Cl)c3)Oc3cc2cc(c3O[C@@H]2O[C@H](CO)[C@@H](O)[C@H](O)[C@H]2O[C@H]2C[C@](C)(N)[C@H](O)[C@H](C)O2)Oc2ccc(cc2Cl)[C@H]1O [Vancomycin, vancomycin, reference compound]
1 µg/mL: S. aureus 29213; Staphylococcus aureus, 29213, read-out: MIC (S. aureus 29213) | VRSA [2]; NRS 2 / VRSA, NRS-2 VRSA, the 5th table | MRSA; 6215 MRSA | MRSA; 6217 MRSA | MRSA; 6218 MRSA | MRSA; AR-978 MRSA | MRSA; AR-979 MRSA | MRSA; AR-993 MRSA | MRSA; AR-997 MRSA | MSSA; VGP16-99 MSSA
256 µg/mL: vanB VRE 51299 | vanB VRE 51299; read-out: MIC (vanB VRE 51299)
64 µg/mL: VRSA [1]
0.5 µg/mL: S. aureus 29213; Staphylococcus aureus, ATCC 29213 / MRSA | MRSA; 6220 MRSA | MRSA; 6231 MRSA | MSSA; VGP16-94 MSSA | MSSA; VGP16-95 MSSA | MSSA; VGP16-96 MSSA | MSSA; VGP16-97 MSSA | MSSA; VGP16-98 MSSA
>64 µg/mL: VRE; 1593 (VRE), the 3rd table | VRE; 1593 VRE, the 4th table | VRE; 1751 (VRE), the 3rd table | VRE; 1751 VRE, the 6th table | VRE; 1772 VRE, the 6th table | VRE; 1946 VRE, the 6th table | VRE; 2059 VRE, the 6th table | VRE; 2431 VRE, the 6th table | VRE; 2574 VRE, the 6th table | VRE; 3053 VRE, the 6th table | VRE; 3183 (VRE), the 3rd table | VRE; 3183 VRE, the 6th table | VRE; 3190 VRE, the 6th table | VRE; 3191 VRE, the 6th table | VRE; 3222 (VRE, the 3rd table) | VRE; 3222 VRE, the 6th table | VRE; 3235 VRE, the 6th table | VRE; 3239 VRE, the 6th table | VRE; 3241 VRE, the 6th table | VRE; 3623 VRE, the 6th table
2 µg/mL: S. aureus 25923 | MRSA 33591
32 µg/mL: VRSA [2]; VRSA, VRS-2 (VRSA), the 3rd table | VRSA [2]; VRSA, VRS-2 VRSA, the 5th table | VRSA [2]; VRSA, VRS-3a VRSA, the 5th table | VRSA [2]; VRSA, VRS-4 (VRSA), the 3rd table
8 µg/mL: VRSA [2]; NRS 1 / VRSA, NRS-1 (VRSA), the 3rd table | VRSA [2]; NRS 1 / VRSA, NRS-1 VRSA, the 5th table
> 64 µg/mL: VRSA [2]; VRSA, VRS-1 (VRSA), the 3rd table | VRSA [2]; VRSA, VRS-1 VRSA, the 5th table | VRSA [2]; VRSA, VRS-3b VRSA, the 5th table | VRSA [2]; VRSA, VRS-4 VRSA, the 5th table | VRSA [2]; VRSA, VRS-5 VRSA, the 5th table | VRSA [2]; VRSA, VRS-6 VRSA, the 5th table | VRSA [2]; VRSA, VRS-7 VRSA, the 5th table | VRSA [2]; VRSA, VRS-8 VRSA, the 5th table | VRSA [2]; VRSA, VRS-9 VRSA, the 5th table | VRSA [2]; VRSA, VRS-10 VRSA, the 5th table | VRSA [2]; VRSA, VRS-11a VRSA, the 5th table | VRSA [2]; VRSA, VRS-11b VRSA, the 5th table | VRE; Enterococcus, VRE
